# Measurements published in PMC6679423 (International Journal of Molecular Sciences, 2019).
# Marks after values point to notes of the source that are not given here.
# Legend:
# [1] = target: CYP enzymes in human liver microsomes (N-desmethylvandetanib formation) (Homo sapiens, UniProt P08684); assay: Effects of inhibitors on N-desmethylvandetanib formation in human liver microsomes; details: human, pH 7.4
# Description: (§1) After the incubations, 5 µL of 1 mM phenacetine (dissolved in methanol) was added as internal standard. The reaction was stopped by extraction with dichlormethane (2 × 1 mL).
# (§2) Inhibition studies in human liver microsomes were essentially conducted as reported previously.
# [2] = target: CYP enzymes in human liver microsomes (Homo sapiens, UniProt P08684); assay: as above; details: inhibitor 50 μM equimolar to vandetanib (50 μM), 0.1 nmol microsomal CYP
# Chain of CYP enzymes in human liver microsomes (P08684 2-503): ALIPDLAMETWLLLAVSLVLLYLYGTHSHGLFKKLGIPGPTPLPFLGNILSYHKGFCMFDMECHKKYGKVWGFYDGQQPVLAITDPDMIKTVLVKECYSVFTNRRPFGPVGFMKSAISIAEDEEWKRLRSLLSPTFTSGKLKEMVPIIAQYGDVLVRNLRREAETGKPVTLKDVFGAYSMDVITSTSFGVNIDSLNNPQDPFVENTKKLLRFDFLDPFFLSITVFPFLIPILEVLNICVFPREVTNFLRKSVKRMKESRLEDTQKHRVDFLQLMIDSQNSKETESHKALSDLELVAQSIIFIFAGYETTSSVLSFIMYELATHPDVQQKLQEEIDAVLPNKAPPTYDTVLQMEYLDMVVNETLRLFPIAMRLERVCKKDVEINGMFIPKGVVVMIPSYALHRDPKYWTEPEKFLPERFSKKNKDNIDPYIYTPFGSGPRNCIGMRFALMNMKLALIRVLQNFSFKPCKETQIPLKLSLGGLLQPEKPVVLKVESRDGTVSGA
# Chain of CYP enzymes in human liver microsomes (P16435 2-677, further chain): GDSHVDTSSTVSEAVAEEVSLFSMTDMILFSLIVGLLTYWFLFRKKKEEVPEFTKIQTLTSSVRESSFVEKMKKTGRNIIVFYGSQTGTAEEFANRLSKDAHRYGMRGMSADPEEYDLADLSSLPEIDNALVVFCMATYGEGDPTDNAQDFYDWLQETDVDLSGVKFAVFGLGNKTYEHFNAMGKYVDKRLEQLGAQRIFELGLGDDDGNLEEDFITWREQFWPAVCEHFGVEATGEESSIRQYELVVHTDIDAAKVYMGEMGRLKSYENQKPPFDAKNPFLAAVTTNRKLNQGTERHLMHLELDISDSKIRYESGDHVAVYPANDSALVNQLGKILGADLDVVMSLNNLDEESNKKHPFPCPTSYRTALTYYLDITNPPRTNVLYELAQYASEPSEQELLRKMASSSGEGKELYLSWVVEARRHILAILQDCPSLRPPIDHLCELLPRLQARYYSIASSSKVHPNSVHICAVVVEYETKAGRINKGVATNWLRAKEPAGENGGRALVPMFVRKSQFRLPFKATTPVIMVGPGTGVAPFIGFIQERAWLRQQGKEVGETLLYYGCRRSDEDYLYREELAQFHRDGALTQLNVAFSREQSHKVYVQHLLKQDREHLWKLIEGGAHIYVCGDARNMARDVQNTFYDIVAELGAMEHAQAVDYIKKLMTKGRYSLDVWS
# Description: as §1, §2
# [3] = target: T1, FMO in human liver microsomes (Homo sapiens, UniProt P31513); assay: Effects of inhibitors on vandetanib-N-oxide formation in human liver microsomes; format: in vitro ADME; details: inhibitor 50 μM equimolar to vandetanib (50 μM), 0.25 mg microsomal protein
# T1 sequence (P31513 2-532): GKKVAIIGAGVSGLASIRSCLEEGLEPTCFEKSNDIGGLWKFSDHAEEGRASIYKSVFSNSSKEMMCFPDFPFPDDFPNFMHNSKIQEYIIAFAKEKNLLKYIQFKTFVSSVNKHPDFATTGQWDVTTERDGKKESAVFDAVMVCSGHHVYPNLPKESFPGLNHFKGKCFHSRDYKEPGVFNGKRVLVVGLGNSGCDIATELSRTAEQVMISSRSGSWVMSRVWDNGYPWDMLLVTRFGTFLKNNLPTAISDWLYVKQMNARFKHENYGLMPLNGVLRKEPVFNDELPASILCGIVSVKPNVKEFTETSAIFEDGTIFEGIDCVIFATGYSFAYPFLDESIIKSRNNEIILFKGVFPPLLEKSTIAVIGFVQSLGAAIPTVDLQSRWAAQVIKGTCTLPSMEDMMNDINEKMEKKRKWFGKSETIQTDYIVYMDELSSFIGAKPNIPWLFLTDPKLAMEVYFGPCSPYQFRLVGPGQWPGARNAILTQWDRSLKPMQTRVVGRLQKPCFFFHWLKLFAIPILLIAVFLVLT
# [4] = system: human hepatic microsomes; assay: Oxidation of vandetanib by human hepatic microsomes; format: in vitro ADME
# Text: The reaction was initiated by adding vandetanib.
# [5] = system: rat hepatic microsomes; assay: Oxidation of vandetanib by rat hepatic microsomes; format: in vitro ADME; details: 50 µM vandetanib, N-oxide higher
# Description: (§3) Vandetanib was from LC Laboratories (Woburn, MA, USA). Ketoconazole, NADPH, methimazol and other chemicals were all purchased from Sigma-Aldrich (St. Louis, MO, USA). The purity of all chemicals met the standards of American Chemical Society, unless noted otherwise. All animal experiments were conducted in accordance with the Regulations for the Care and Use of Laboratory Animals (311/1997, Ministry of Agriculture, Czech Republic), which follows the Declaration of Helsinki. Male Wistar rats (~125–150 g; AnLab, Czech Republic), male C57BL/6 mice ([…]; CXR Bioscience Ltd., Dundee, UK), and male New Zealand rabbits (2.5–3 kg; AnLab, Czech Republic) were employed as animal models. Animals were placed in cages in temperature- and humidity-controlled rooms, acclimatized for five days and maintained at 22 °C with a 12 h light/dark period. Standardized diet and water were provided ad libitum. Rats, mice and rabbits used to prepare microsomal fraction from untreated animals were sacrificed by cervical dislocation, livers snap-frozen in liquid nitrogen and stored at −80 °C until further processing (see below). […] Protein concentrations in the microsomal fractions were assessed using the bicinchoninic acid protein assay with bovine serum albumin as a standard. […]
# [6] = system: rabbit hepatic microsomes; assay: Oxidation of vandetanib by rabbit hepatic microsomes; format: in vitro ADME; details: 50 µM vandetanib, N-oxide higher
# Description: as §3
# [7] = system: mouse hepatic microsomes; assay: Oxidation of vandetanib by mouse hepatic microsomes; format: in vitro ADME; details: 50 µM vandetanib, N-oxide higher
# Description: as §3
# [8] = system: human liver microsomes; assay: Vandetanib metabolite formation by hepatic microsomes of 12 human donors; format: in vitro ADME; details: detection limit < 0.002
# Description: (§4) Vandetanib was from LC Laboratories (Woburn, MA, USA). Ketoconazole, NADPH, methimazol and other chemicals were all purchased from Sigma-Aldrich (St. Louis, MO, USA). The purity of all chemicals met the standards of American Chemical Society, unless noted otherwise. All animal experiments were conducted in accordance with the Regulations for the Care and Use of Laboratory Animals (311/1997, Ministry of Agriculture, Czech Republic), which follows the Declaration of Helsinki. Male Wistar rats (~125–150 g; AnLab, Czech Republic), male C57BL/6 mice ([…]; CXR Bioscience Ltd., Dundee, UK), and male New Zealand rabbits (2.5–3 kg; AnLab, Czech Republic) were employed as animal models. Animals were placed in cages in temperature- and humidity-controlled rooms, acclimatized for five days and maintained at 22 °C with a 12 h light/dark period. Standardized diet and water were provided ad libitum. Rats, mice and rabbits used to prepare microsomal fraction from untreated animals were sacrificed by cervical dislocation, livers snap-frozen in liquid nitrogen and stored at −80 °C until further processing (see below). For controls, livers of the animals were removed immediately after sacrifice, divided into small pieces (~1 g), snap-frozen in liquid nitrogen, and stored at −80 °C until isolation of microsomal fractions. Pooled microsomes were used for all in vitro experiments in the present study and prepared from 10 livers/group for all animal species following established protocols. Microsomal fractions were stored at −80 °C until analysis. Protein concentrations in the microsomal fractions were assessed using the bicinchoninic acid protein assay with bovine serum albumin as a standard. Male human hepatic microsomes (pooled sample) (sample LOT: 3043885) were from Gentest Corp. (Woburn, MA, USA). Microsomes from livers of twelve human donors were obtained from Gentest Corp. (Woburn, MA, USA) (cat. no. HG43–1, HG103, HG74, HG93, HG24, HG27, HG23, HG32, HK31, HK34, HG03, and HG42). Each human microsomal sample has been characterized for CYP, FMO and protein contents and specific CYP activities by Gentest Corp. We reanalyzed each microsomal preparation for specific CYP, NADPH:CYP reductase (POR) and FMO activities by assays described in the protocols of Gentest Corp. Our data were similar to those reported by Gentest Corp. in their specification sheets. The content of CYP, specific CYP and FMO activities in each human hepatic microsomes [phenacetin-O-deethylation (CYP1A2), coumarin-7-hydroxylation (CYP2A6), (S)-mephenytoin-N-demethylase (CYP2B6), paclitaxel-6α-hydroxylation (CYP2C8), diclofenac-4’-hydroxylation (CYP2C9), (S)-mephenytoin-4′-hydroxylation (CYP2C19), bufuralol-1’-hydroxylation (CYP2D6), chlorzoxazone-6-hydroxylation (CYP2E1), testosterone-6β-hydroxylation (CYP3A4), lauric acid-12-hydroxylation (CYP4A), methyl-p-tolyl sulfide oxidase (FMO)] are shown in Table 2. Human recombinant enzymes were used in the forms of Supersomes™ and obtained from Gentest Corp. In Supersomes™ microsomal fractions were isolated from insect cells that are transfected with baculovirus constructs containing cDNA of human CYP enzymes (CYP1A1/2, 1B1, 2A6, 2B6, 2C8/9/18/19/, 2D6, 2E1, 3A4). These Supersomes™ also express NADPH:CYP oxidoreductase (POR). However, because they are microsomes (particles of broken endoplasmic reticulum), other enzymes (proteins) of the endoplasmic reticulum membrane (like NADH:cytochrome b5 reductase and cytochrome b5) are also expressed at basal levels in these Supersomes™. We also utilized Supersomes™ which over-expressed cytochrome b5, in a molar ratio of CYP to cytochrome b5 of 1 to 5. In Supersomes™ where cytochrome b5 was not over-expressed (see above) pure cytochrome b5 was added to reach a molar ratio of CYP to cytochrome b5 of 1 to 5. Reconstitution of Supersomes™ with purified cytochrome b5 was performed as described previously. […]
# [9] = system: human hepatic microsomes; assay: Correlation of CYP- and FMO-linked activities with vandetanib metabolite formation in human hepatic microsomes; format: in vitro ADME; details: 12 human liver microsomal samples; for Correlation coefficient (r) of metabolite amount with CYP2E1 activity: chlorzoxazone-6-hydroxylase
# Description: as §4
# [10] = system: human recombinant FMO1; assay: Vandetanib oxidation by human recombinant FMOs (Supersomes); format: in vitro ADME; details: recombinant FMO1 vs FMO3
# Description: as §3
# [11] = system: human liver microsomes; assay: Vandetanib metabolite formation by hepatic microsomes of 12 human donors; format: in vitro ADME; details: human hepatic microsomal sample HK23; detection limit < 0.002
# [12] = system: VEGFR and EGFR; details: compared to the parent drug; cited from earlier work
# Chain of CYP enzymes in human liver microsomes (N-desmethylvandetanib formation) (P08684 2-503): as the sequence (P08684 2-503) above
# Chain of CYP enzymes in human liver microsomes (N-desmethylvandetanib formation) (P16435 2-677, further chain): as the sequence (P16435 2-677, further chain) above
smiles,measurement,setting,value
"Nc1ccc(S(=O)(=O)Nc2ccnn2-c2ccccc2)cc1 [Sulfaphenazole, sulfaphenazole]","inhibition at 20 min, 50 µM",[1],38 ± 4%
same,"inhibition at 20 min, 500 µM",[1],< 50%
"CCN(CC)C(=S)S [DDTC, diethyldithiocarbamate]","% of Inhibition, N-Desmethyvandetanib Formation",[2],no inhibitory effects
same,"inhibition at 20 min, 50 µM",[1],0%
same,"% of Inhibition, Vandetanib-N-oxide Formation",[3],no inhibition
"O=c1cc(-c2ccccc2)oc2c1ccc1ccccc12 [α-Napththoflavone, α-naphthoflavone]","% of Inhibition, N-Desmethyvandetanib Formation",[2],0%
same,"% of Inhibition, N-Desmethyvandetanib Formation",[2]; listed as α-NF,no inhibitory effects
COc1cc2c(Nc3ccc(Br)cc3F)ncnc2cc1OCC1CC[N+](C)([O-])CC1 (stereo not drawn) [vandetanib-N-oxide],vandetanib-N-oxide formed at fold lower amounts than N-desmethylvandetanib,[4],~ 4 fold
same,"F, fold difference between formation of N-desmethylvandetanib and vandetanib-N-oxide",[5],4- to 8 fold
same,"F, fold difference between formation of N-desmethylvandetanib and vandetanib-N-oxide",[6],4- to 8 fold
same,"F, fold difference between formation of N-desmethylvandetanib and vandetanib-N-oxide",[7],4- to 8 fold
same,vandetanib-N-oxide (M2) formed,[8]; human hepatic microsomal sample HG24,0.004 peak area/(mg protein × min)
same,vandetanib-N-oxide (M2) formed,[8]; human hepatic microsomal sample HG42,0.015 peak area/(mg protein × min)
same,vandetanib-N-oxide (M2) formed,[8]; human hepatic microsomal sample HG74,0.004 peak area/(mg protein × min)
same,vandetanib-N-oxide (M2) formed,[8]; human hepatic microsomal sample HG93,0.112 peak area/(mg protein × min)
same,vandetanib-N-oxide (M2) formed,[8]; human hepatic microsomal sample HG103,0.004 peak area/(mg protein × min)
same,vandetanib-N-oxide (M2) formed,[8]; human hepatic microsomal sample HK31,0.015 peak area/(mg protein × min)
same,Correlation coefficient (r) of metabolite amount with POR,[9],0.035
same,Correlation coefficient (r) of metabolite amount with Total CYPs,[9],0.166
same,Correlation coefficient (r) of metabolite amount with CYP2C19 activity,[9]; (S)-mephenytoin-4′-hydroxylase,0.088
same,Correlation coefficient (r) of metabolite amount with CYP2B6 activity,[9]; (S)-mephenytoin-N-demethylase,0.093
same,Correlation coefficient (r) of metabolite amount with CYP2D6 activity,[9]; bufuralol-1′-hydroxylase,−0.343
same,Correlation coefficient (r) of metabolite amount with CYP2E1 activity,[9],0.714
same,Correlation coefficient (r) of metabolite amount with CYP2E1 activity,[9]; listed as M2,0.714 **
same,Correlation coefficient (r) of metabolite amount with CYP2A6 activity,[9]; coumarine-7-hydroxylase,−0.339
same,Correlation coefficient (r) of metabolite amount with CYP2C9 activity,[9]; diclofenac-4′-hydroxylase,−0.039
same,Correlation coefficient (r) of metabolite amount with FMO activity,"[9]; methyl-p-tolyl sulfide oxidase, listed as M2",0.736 **
same,Correlation coefficient (r) of metabolite amount with CYP2C8 activity,[9]; paclitaxel-6α-hydroxylase,0.288
same,Correlation coefficient (r) of metabolite amount with CYP1A2 activity,[9]; phenacetin-O-deethylase,−0.157
same,Correlation coefficient (r) of metabolite amount with CYP3A4 activity,[9]; testosterone-6β-hydroxylase,−0.200
same,efficiency of FMO1 to form vandetanib-N-oxide relative to FMO3,[10],over 5 times
same,vandetanib-N-oxide (M2) formed,[11],0.008 peak area/(mg protein × min)
same,pharmacological activity relative to vandetanib (fold less active),[12],more than 50 fold
